Assays:
Experiment in all cases: checkerboard combination, clinical bacterial isolates (FIC)
Type in all cases: cell-based
[1] = tested on: S. mitis SMI_116
Description: (§1) The combination experiments were performed and the results were interpreted using the checkerboard method as described in Eliopoulous, G. M., and R. C. Moellering, 1996, Antimicrobial combinations, p. 330-396, In V. Lorian (ed.), Antibiotics in laboratory medicine, 4th ed., The Williams & Wilkins Co., Baltimore, Md., in 96-well microtiter plates. Compound A was serially diluted along the x-axis of the test plate to a final volume of 50 μl, and compound B was serially diluted in a separate transfer plate. Dilutions in both plates were made in CAMHB (cation-adjusted Mueller Hinton broth) for Staphylococci and in CAMHB+5% sheep blood for Streptococci. Aliquots (50 μl) of Compound B were transferred to the test plate along the y-axis thereby achieving a checkerboard matrix of antimicrobial combinations (100 μl total volume) as in FIG. 4. The first column and last row (shaded in FIG. 4) contained only compound B or compound A, respectively. Plates were then inoculated with 10 μl of the test microorganism and MICs were determined according to NCCLS guidelines (see National Committee for Clinical Laboratory Standards, 2000, Methods for Dilution Antimicrobial Susceptibility Tests for Bacteria That Grow Aerobically—Fifth Edition, Approved Standard M7-A5, NCCLS, Wayne, Pa., USA.)
(§2) Data analysis was performed as follows and according to Eliopoulous, G. M., and R. C. Moellering, 1996, Antimicrobial combinations, p. 330-396, In V. Lorian (ed.), Antibiotics in laboratory medicine, 4th ed., The Williams & Wilkins Co., Baltimore, Md. First individual FIC values for each combination in a plate were calculated: FIC(Fractional Inhibitory Concentration)=FICA+FICB • FICA=MICA+B/MICA i.e. the MIC of combination of compound A+compound B divided by the MIC of compound A alone. • FICB=MICB+A/MICB i.e. the MIC of combination of compound B+compound A divided by the MIC of compound B alone.
(§3) FIC values were calculated only for combinations that enabled determination of a true MIC (e.g. not > or <=values). FIC indexes were then calculated as the average of individual FIC values for each combination plate.

[2] = tested on: S. epidermidis SE_A7100750; conditions: S. epidermidis SE_A7100750 (MRSE CipR)
Description: as §1, §2, §3

[3] = tested on: E. faecalis EF_A6221420; conditions: E. faecalis EF_A6221420 (VRE)
Description: as §1, §2, §3

[4] = tested on: S. pneumoniae SP_22257; conditions: compound G with Azithromycin; S. pneumoniae SP_22257 (PenR EryS ClinS)
Description: as §1, §2, §3

[5] = tested on: H. influenzae HI_49247; conditions: compound G with Azithromycin
Description: as §1, §2, §3

[6] = tested on: S. aureus SA_A6250596; conditions: S. aureus SA_A6250596 (MRSA-MDR)
Description: as §1, §2, §3

[7] = tested on: E. coli EC_25922
Description: as §1, §2, §3

[8] = tested on: S. aureus SA_A7080336; conditions: S. aureus SA_A7080336 (MRSA)
Description: as §1, §2, §3

[9] = tested on: S. aureus SA_29213; conditions: S. aureus SA_29213 (MSSA)
Description: as §1, §2, §3

[10] = tested on: P. aeruginosa PA_27853
Description: as §1, §2, §3

[11] = tested on: S. pneumoniae SP_22425; conditions: S. pneumoniae SP_22425 (PenR EryR ClinR)
Description: as §1, §2, §3

Cc1c(CN(C)C(=O)/C=C/c2cnc3c(c2)CCC(=O)N3)oc2ccccc12 [Compound G, (E)-N-methyl-N-(3-methylbenzofuran-2-ylmethyl)-3-(7-oxo-5,6,7,8-tetrahydro-1,8-naphthyridin-3-yl)acrylamide]
FIC ([1]; compound G with Ceftriaxone): <2 | FIC ([1]; compound G with Gatifloxacin): <2 | FIC ([1]; compound G with Meropenem): <2 | FIC ([1]; compound G with Penicillin): <2 | FIC ([2]; compound G with Ceftriaxone): 1 | FIC ([2]; compound G with Gatifloxacin): <2 | FIC ([2]; compound G with Meropenem): 0.6 | FIC ([3]; compound G with Ceftriaxone): <2 | FIC ([3]; compound G with Gatifloxacin): <2 | FIC ([3]; compound G with Levofloxacin): <2 | FIC ([3]; compound G with Meropenem): <2 | FIC [4]: <2 | FIC [5]: <2 | FIC ([6]; compound G with Azithromycin): <2 | FIC ([6]; compound G with Ceftriaxone): <2 | FIC ([6]; compound G with Cefuroxime): <2 | FIC ([6]; compound G with Gatifloxacin): 1 | FIC ([6]; compound G with Levofloxacin): 1 | FIC ([6]; compound G with Meropenem): <2 | FIC ([6]; compound G with Penicillin): <2 | FIC ([7]; compound G with Ceftriaxone): 0.7 | FIC ([7]; compound G with Gatifloxacin): <2 | FIC ([7]; compound G with Meropenem): 0.6 | FIC ([8]; compound G with Gatifloxacin): 0.6 | FIC ([8]; compound G with Levofloxacin): 0.6 | FIC ([9]; compound G with Azithromycin): 0.6 | FIC ([9]; compound G with Ceftriaxone): <2 | FIC ([9]; compound G with Cefuroxime): <2 | FIC ([9]; compound G with Meropenem): 1 | FIC ([9]; compound G with Penicillin): 0.7 | FIC ([10]; compound G with Gatifloxacin): <2 | FIC ([10]; compound G with Meropenem): <2 | FIC ([11]; compound G with Ceftriaxone): <2 | FIC ([11]; compound G with Cefuroxime): <2 | FIC ([11]; compound G with Gatifloxacin): <2 | FIC ([11]; compound G with Levofloxacin): <2 | FIC ([11]; compound G with Meropenem): <2

From patent US7879872B2, “Compositions comprising multiple bioactive agents, and methods of using the same” (Affinium Pharmaceuticals, Inc., priority 2003, dated 2011)
